In patent US20150175608A1, “NOVEL 4-SUBSTITUTED 1,3-DIHYDRO-2H-BENZIMIDAZOL-2-ONE DERIVATIVES SUBSTITUTED WITH BENZIMIDAZOLES AS RESPIRATORY SYNCYTIAL VIRUS ANTIVIRAL AGENTS” (Janssen R&D Ireland, priority 2012, published 2015):

Legend:
rgRSV224 virus = test: Antiviral activity: rgRSV224 replication (GFP expression) in HeLa cells; format: cell-based; conditions: human respiratory syncytial virus, 72 h, read-out: WT activity EC50
Description: (§1) Antiviral Activity Black 96-well clear-bottom microtiter plates (Corning, Amsterdam, The Netherlands) were filled in duplicate using a customized robot system with serial 4-fold dilutions of compound in a final volume of 50 μl culture medium [RPMI medium without phenol red, 10% FBS, 0.04% gentamycin (50 mg/ml) and 0.5% DMSO]. Then, 100 μl of a HeLa cell suspension (5×10^4 cells/ml) in culture medium was added to each well followed by the addition of 50 μl rgRSV224 (MOI=0.02) virus in culture medium using a multidrop dispenser (Thermo Scientific, Erembodegem, Belgium). rgRSV224 virus is an engineered virus that includes an additional GFP gene (Hallak et al, 2000) and was in-licensed from the NIH (Bethesda, Md., USA). Medium, virus- and mock-infected controls were included in each test. Cells were incubated at 37° C. in a 5% CO2 atmosphere. Three days post-virus exposure, viral replication was quantified by measuring GFP expression in the cells by a MSM laser microscope (Tibotec, Beerse, Belgium). The EC50 was defined as the 50% inhibitory concentration for GFP expression. In parallel, compounds were incubated for three days in a set of white 96-well microtiter plates (Corning) and the cytotoxicity of compounds in HeLa cells was determined by measuring the ATP content of the cells using the ATPlite kit (PerkinElmer, Zaventem, Belgium) according to the manufacturer's instructions. The CC50 was defined as the 50% concentration for cytotoxicity.

in vitro = format: cell-based; conditions: human
Description: as §1

| SMILES | EC50 (rgRSV224 virus) [nM] | CC50 at 3 days (in vitro) [µM] | melting point [°C] |
| --- | --- | --- | --- |
| CS(=O)(=O)CCCn1c(Cn2c(=O)n(C3CC3)c3c(Cl)cncc32)nc2cc(Cl)ccc21 [Compound P1, 7-Chloro-3-((5-chloro-1-(3-(methylsulfonyl)-propyl)-1H-benzo[d]imidazol-2-yl)methyl)-1-cyclopropyl-1H-imidazo[4,5-c]pyridin-2(3H)-one] | 1.7 | > 100 | – |
| CS(=O)(=O)CCCn1c(Cn2c(=O)n(C3CC3)c3c(Cl)cccc32)nc2cc(Cl)ccc21 [Compound P2, 4-Chloro-1-((5-chloro-1-(3-(methylsulfonyl)propyl)-1H-benzo[d]imidazol-2-yl)methyl)-3-cyclopropyl-1H-benzo[d]imidazol-2(3H)-one] | 7.4 | > 100 | – |
| Cc1cccc2c1n(C1CC1)c(=O)n2Cc1nc2cc(Cl)ccc2n1CCCS(C)(=O)=O [Compound P3, 1-((5-Chloro-1-(3-(methylsulfonyl)propyl)-1H-benzo[d]imidazol-2-yl)-methyl)-3-cyclopropyl-4-methyl-1H-benzo[d]imidazol-2(3H)-one] | 5.1 | 64.6 | – |
| Cc1cncc2c1n(C1CC1)c(=O)n2Cc1nc2cc(Cl)ccc2n1CCCS(C)(=O)=O [Compound P4, 3-((5-chloro-1-(3-(methylsulfonyl)propyl)-1H-benzo[d]imidazol-2-yl)methyl)-1-cyclopropyl-7-methyl-1H-imidazo[4,5-c]pyridin-2(3H)-one] | 1.4 | > 100 | – |
| CS(=O)(=O)CCCn1c(Cn2c(=O)n(C3CC3)c3c(C(F)(F)F)cccc32)nc2cc(Cl)ccc21 [Compound P5, 1-((5-chloro-1-(3-(methylsulfonyl)propyl)-1H-benzo[d]imidazol-2-yl)-methyl)-3-cyclopropyl-4-(trifluoromethyl)-1H-benzo[d]imidazol-2(3H)-one] | 28 | > 100 | 210.18 |
| CS(=O)(=O)CCCn1c(Cn2c(=O)n(CC(F)(F)F)c3c(Cl)cncc32)nc2cc(Cl)ccc21 [Compound P6, 7-chloro-3-((5-chloro-1-(3-(methylsulfonyl)propyl)-1H-benzo[d]imidazol-2-yl)methyl)-1-(2,2,2-trifluoroethyl)-1H-imidazo[4,5-c]pyridin-2(3H)-one] | 9 | > 100 | 232.82 |
| CS(=O)(=O)CCCn1c(Cn2c(=O)n(CC(F)(F)F)c3c(Cl)cccc32)nc2cc(Cl)ccc21 [Compound P7, 4-chloro-1-((5-chloro-1-(3-(methylsulfonyl)propyl)-1H-benzo[d]imidazol-2-yl)methyl)-3-(2,2,2-trifluoroethyl)-1H-benzo[d]imidazol-2(3H)-one] | 12 | 69 | – |
